Test [1] concerns ZSF-1 Obese cardiomyocyte. Nature of the test: Immunofluorescence of detyrosinated and tyrosinated tubulin in ZSF1 cardiomyocytes. Type of test: cell-based, rat. The following applies: 2 hr 37 C incubation. As for the experimental part:
Cells were fixed in 4% PFA (Electron Microscopy Sciences) for 10 minutes, washed 3 times with PBS and permeabilized in 0.1% TritonX-100 for 10 minutes at room temperature. After washing twice with PBS, cells were placed in blocking buffer (1:1 Seablock (Abcam) and 0.1% TritonX-100 (Bio-Rad) in PBS) for at least 1 hour at room temperature, then labeled with primary antibodies (see below) for 24-48 hours at 4° C. Cells were then washed three times in TBS, then labeled with secondary antibodies (see below) in TBS at room temperature for 2-4 hours and washed a final two times with TBS. Stained cells were mounted on #1.5 coverslips in Prolong Diamond Antifade Mountant (Thermo Fisher) for imaging. Alternatively, cells were imaged directly in chambers with TBS. Imaging was carried out on a Zeiss 880 Airyscan confocal microscope operating on an Axiovert Z1 inverted microscope equipped with a Plan-Apochromat 63× oil 1.4 NA objective. Image analysis was performed using ZEN Black software for Airyscan processing, which involves signal integration from the 32 separate sub-resolution detectors in the Airyscan detector and subsequent deconvolution of this integrated signal.

The test system of test [2] is human adult cardiomyocytes. Nature of the test: Western blot of tubulin detyrosination and acetylation in human adult cardiomyocytes. Type of test: cell-based. As for the experimental part:
FIG. 33: human adult cardiomyocytes are treated with vehicle or SVC-01 (inhibitor). Protein lysates are analysed by western blot to evaluate the level of tubulin detyrosination and acetylation.
Specificity of SVC-01 was assayed using both human VASH1 and VASH2 recombinant enzymes. […] Finally, to ensure that regulation of other genes involved in the detyrosination-tyrosination cycle is not affected, we analysed gene expression of all relevant and associated genes following treatment with SVC-02 in adult human cardiomyocytes. We found no alteration of VASH1, VASH2, MATCAP, TTL or SVBP gene expression between vehicle control and SVC-02 treated cells (FIG. 34).

Test [3] concerns ZSF1-Lean and Obese rats. Nature of the test: Myocardial tubulin detyrosination after IV injection in ZSF1 rats (western blot, immunofluorescence). Type of test: in vivo, rat. The following applies: for detyrosinated tubulin in myocardial tissue (words): IV injections, 30 weeks old ZSF1 rats, western blot. As for the experimental part:
FIG. 23: immunofluorescence imaging to detect tubulin detyrosination on LV tissue and evaluate changes in the abundance of detyrosinated tubulin following SVC-02 treatment.
FIG. 24: Quantification of immunofluorescence imaging analysis performed on LV tissue to evaluate changes in microtubule density (SVC-02 as VASHi).
Formalin fixed paraffin embedded (FFPE) sections on glass slides were deparaffinized by sequential washes in xylenes, and decreasing concentrations of ethanol (100%, 95%, 75%, and 50%) followed by ddH2O. Slides were placed in 1× Reveal decloaking solution (Biocare Medical, Catalog #RV1000M) for antigen retrieval. Antigen retrieval was performed using a pressure cooker (Instant Pot Pro 10-in-1 pressure cooker, 8 Quart, Amazon.com) for 15 minutes at high pressure. After cooling, slides underwent a second round of antigen retrieval in 1× Antigen Unmasking Solution, Citric Acid Based (Vector Laboratories, Catalog #H-3300-250) in a pressure cooker for 15 minutes at high pressure. Next, the slides were washed in ddH2O, followed by PBS. The slides were permeabilized with PBS+0.25% Triton X-100, followed by incubation in fish serum blocking buffer (Thermo Scientific, Catalog #37527) containing 0.1% Tween 20 for 1 hour at RT.
Sections were co-stained with Mouse monoclonal (B-5-1-2) antibody to α-tubulin (Sigma-Aldrich, Catalog #T5168; 1:50) and Rabbit polyclonal detyrosinated α-tubulin antibody (ab48389 Lot #GR3425171; 1:50) in blocking buffer for 2 days at RT. Sections were washed in PBS containing 0.1% Tween 20 (PBST) and then incubated in goat anti-rabbit conjugated to Alexa Fluor 647 and goat anti-mouse conjugated to Alexa Fluor 568 secondary antibodies along with Alexa Fluor 488 conjugated WGA (Invitrogen Catalog #W11261; final concentration 25 μg/mL) in PBST for 2 days at RT. The sections were then stained with Hoechst 33342, Trihydrochloride, Trihydrate (Invitrogen Catalog #H3570, final concentration 10 μg/mL in PBS) and mounted in Prolong Diamond Antifade Mountant (Invitrogen Catalog #P36961).
Longitudinally oriented cardiomyocytes within the myocardium were identified. Four channel Z-stacks (4×500 nm slices) of myocardial regions were imaged using a 63× oil immersion objective (1.4 NA) on a Zeiss Airyscan 880 microscope with 18.3 nm×18.3 nm pixel size. The images were background subtracted and maximum intensity projections were generated in FIJI (NIH). Rectangular ROIs were blindly drawn within the cytosolic portion of individual cardiomyocytes, while excluding the nuclei and perinuclear regions, using the WGA and Hoechst channels. The α-tubulin and detyrosinated microtubule images were extracted from the ROIs. […] The microtubule density was calculated as the percent area coverage of the binary maps within each ROI. […]
A general note: In western blotting, separated proteins are transferred to a membrane and probed.

“Also recorded” adds a separate entry of the source.

Consider `O=C(O)CCC[C@H](NC(=O)[C@H]1O[C@@H]1C(=O)C[C@@H](Cc1ccc(OCc2ccccc2)cc1)C(=O)O)C(=O)NCCc1ccccc1` [SVC_01], for which, in test [1], the “detyrosinated tubulin in ZSF1 cardiomyocytes” value is “virtual elimination of detyrosinated microtubule; also recorded: significant reduction of tubulin detyrosination” and the tyrosinated microtubule network entry is reported as “maintained tyrosinated microtubule network”. Besides, in test [2], the “level of tubulin acetylation” value is given as “did not affect the level of tubulin acetylation; also recorded: remained unchanged” and the “level of tubulin detyrosination” value is listed as “significantly reduces the level of tubulin detyrosination; also recorded: significant reduction of tubulin detyrosination”.

Turning to `CCOC(=O)[C@H](Cc1ccc(OCC)cc1)NC(=O)[C@H]1O[C@@H]1C(=O)N[C@@H](Cc1ccc(OCC)cc1)C(=O)OCC` [SVC_02], the entries for the “detyrosinated tubulin in myocardial tissue (words)” value in test [3] and in test [3] (listed as SVC-02) were “efficient reduction in detyrosinated tubulin” and “significantly reduced detyrosinated tubulin abundance”, respectively. The “reduction of tubulin detyrosination in heart tissue” value in test [3] (lean and obese animals, 8 hours following intravenous injection) is given as “about 60%”. In addition, in test [3] (obese animals, immunofluorescence, vs vehicle), the “density of detyrosinated-microtubules in LV tissue” value is “significant reduction in the density of detyrosinated-microtubules”.

The values above are taken from patent US20260199284A1, “SPECIFIC VASH COMPOUNDS (SVC) INHIBITORS FOR HEART DISEASES” (MT ACT, priority 2023, published 2026).
